The values that follow come from US20090208960A1, “METHODS FOR IDENTIFYNG CELLULAR MODULATORS OF DISAGGREGATION ACTIVITY OR AGGREGATION ACTIVITY IN AN ANIMAL” (priority 2006, published 2009).

Data set [1] concerns proteasome activity of worm PDS. Put plainly: Proteasome activity of worm PDS with substrate Z-GGL-AMC. The class given is biochemical, Caenorhabditis elegans. Particulars: 10 μM; wild-type worm (N2) PDS 0.5 μg/μl. The procedure: The synthetic proteasome substrate Z-GGL-AMC was used according to the manufacturer's (Calbiochem) instructions to follow proteasome activity of wild-type worms (strain N2) PDS (0.5 μg/μl).

Protocol for PC12 cells: Viability of rat adrenal pheochromocytoma (PC12) cells were discerned by the MTT assay (Bucciantini et al., Nature 416: 507, 2002), and normalized to cell survival when incubated in the absence of Aβ1-40.
Using the disaggregation assay and conditions as in B, and 72 h incubation, Aβ1-40 disaggregation samples (500 nM) were added to PC12 cell culture medium for 3 days. Cell viability was assayed by MTT metabolic activity.

Take `CC[C@H](C)[C@H](NC(=O)[C@H]([C@@H](C)CC)N(C)C(C)=O)C(=O)N[C@H](C(=O)N[C@@H](CC(C)C)C(=O)[C@@]1(C)CO1)[C@@H](C)O` [Epoxomicin]: the “proteasome activity of worm PDS” value in data set [1] is given as “effectively inhibits proteasome activity”. For the molecule “Monomeric Aβ1-40 peptide: Aβ1-40 peptide purchased from Synpep”, the “toxicity on PC12 cells” value in the data set on PC12 cells is “did not exhibit toxicity”.
